Reference: patent publication US20260207450A1, “ANTI-DANDRUFF COMPOSITIONS” (Firmenich SA, priority 2022, published 2026)
≈ marks a conversion by molar mass, not a printed value.

Columns and labels:
[1] = test system: M. restricta ATCC MYA-4611; test: Disc-diffusion assay, perfumery materials in DMSO, M. restricta; assay type: cell-based, Malassezia restricta; settings: for zone of inhibition at 0.2 % / zone of inhibition at 1 % / zone of inhibition at 2 %: Malassezia restricta, 144 h; for Inhibition zone (mm) M. restricta: 20 μL on 6 mm disc, 6 days, NI means no inhibition zone
Protocol: (§1) Anti-Malassezia effect of perfumery materials in solvent in DMSO was determined using disc-diffusion assay, based on the method of J Mycol Infect 2018: 23: 91-98. In brief, working cultures of Malassezia strains were prepared from −80 C stock culture on mDixon agar plate (for M. furfur DSM 6170) or mLN agar plate (for M. restricta ATCC MYA-4611 and M. globosa ATCC MYA-4612), and cells were suspended in 0.9% saline, and spread onto mDixon or mLN agar surface to prepare lawn plate. Test samples solutions are prepared in DMSO to final concentrations of 0.2%, 1% or 2%. Discs (Whatman, 6 mm in diameter) were placed on inoculated agar plates with each Malassezia strains respectively, including M. furfur DSM 6170, M. restricta ATCC MYA-4611, and M. globosa ATCC MYA-4612. Aliquots (20 μL) of each sample solution was added to each disc. Agar plates were incubated at 30° C. for 3 days for M. furfur DSM 6170, and 6 days for M. restricta ATCC MYA-4611, and M. globosa ATCC MYA-4612. After incubation, diameters of the clear inhibition zones around the discs were measured. Inhibition zone greater than 6 mm are regarded as having anti-Malassezia effect.

M. globosa ATCC MYA-4612 = test: Disc-diffusion assay, perfumery materials in DMSO, M. globosa; assay type: cell-based, Malassezia globosa; settings: for zone of inhibition at 0.2 % / zone of inhibition at 1 % / zone of inhibition at 2 %: Malassezia globosa, 144 h; for Inhibition zone (mm) M. globosa: 20 μL on 6 mm disc, 6 days, NI means no inhibition zone
Protocol: as §1

M. restricta = test: Disc-diffusion assay, combinations with piroctone olamine (PO) in DMSO, M. restricta; assay type: cell-based, Malassezia restricta; settings: 4 days, ratio greater than 1.0 = boosting effect
Protocol: Anti-Malassezia effect of combinations of PO and perfumery materials in solvent DMSO against M. restricta was determined using disc-diffusion assay as described above. Aliquots (20 μL) of each sample solution was added to each disc. Agar plates were incubated at 30° C. for 4 days. After incubation, diameters of the clear inhibition zones around the discs were measured. Ratio of inhibition zone diameter of each combination to that of PO only were calculated. […] Anti-Malassezia effect of combinations of PO and perfumery raw materials mixtures in solvent DMSO was determined using disc-diffusion assay, as described above. Aliquots (20 μL) of each sample solution was added to each disc. Agar plates were incubated at 30° C. for 4 days. After incubation, diameters of the clear inhibition zones around the discs were measured. Ratio of inhibition zone diameter of each combination to that of PO only were calculated.

[2] = test system: Malassezia furfur DSM 6170; test: MIC assay on Malassezia furfur DSM 6170 (resazurin); assay type: cell-based; settings: 30° C., 48 h aerobically, dilutions 29 to 10000 ppm; for MIC: Malassezia furfur, DSM6170
Protocol: The MIC assay for Malassezia furfur DSM 6170 was modified based on the method in Journal of Clinical Microbiology 2017, Vol 55: 1883-1893. In brief, working culture was prepared from stock cultures stored at −80° C. to obtain a cell suspension as the inoculum. Serial dilutions of samples, 29 to 10000 ppm, were tested to determine the MIC values for growth of Malassezia furfur DSM 6170 after at 30° C. for 48 h aerobically. Resazurin was used as growth indicator.
(§2) A total of 26 perfumery materials were examined for an inhibition effect on Malassezia furfur and Staphylococcus aureus.

[3] = test system: Staphylococcus aureus ATCC 6538; test: MIC assay on Staphylococcus aureus ATCC 6538; assay type: cell-based; settings: TSB, 37° C., 24 h aerobically, dilutions 29 to 10000 ppm; for MIC: Staphylococcus aureus, ATCC6538, read-out: MIC (ppm) S. aureus
Protocol: MIC assay for Staphylococcus aureus ATCC 6538 is based on Clinical Laboratory Standard Institute: CLSI/NCCLS M07-A8. Cell suspension of working cultures of S. aureus was prepared following the instructions of culture provider ATCC, USA.
as §2

M. furfur DSM 6170 = test: Disc-diffusion assay, perfumery materials in DMSO, M. furfur; assay type: cell-based, Malassezia furfur; settings: for zone of inhibition at 2 %: Malassezia furfur, DSM6170, 72 h
Protocol: as §1

Row | Molecule | zone of inhibition at 0.2 % [1] | zone of inhibition at 0.2 % (M. globosa ATCC MYA-4612) | zone of inhibition at 2 % [1] | MIC [2] | MIC [3] | also measured
1 | C=CCCCCCCCCC=O [Mix 10-undecenal, 10-undecenal] | 6.5 mm | 7.1 mm |  |  |  | zone of inhibition at 1 % [1]: 12.7 mm; zone of inhibition at 1 % (M. globosa ATCC MYA-4612): 14.1 mm
2 | CC(C)(C)c1ccc(CCC=O)cc1 [cyclamen propanal, 3-(4-tert-butylphenyl)propanal] | 6.6 mm | 6.3 mm | 12.3 mm |  |  | zone of inhibition at 2 % (M. globosa ATCC MYA-4612): 7.9 mm
3 | CCCCCCCCCC(=O)O [decanoic acid] |  |  |  |  |  | Ratio of inhibition zone diameter (1% PRM + 0.35% PO) to 0.35% PO (M. restricta): 1.1
4 | CCCCCCC1CCCC(=O)O1 (centres unmarked) [delta-undecalactone, 6-hexyltetrahydro-2H-pyran-2-one] | 6.1 mm | 6.4 mm |  | 333 µg/mL (≈ 1810 µM) | 293 µg/mL (≈ 1590 µM) | 
5 | CCOc1cc(C=O)ccc1O [ethyl vanillin, 3-ethoxy-4-hydroxybenzaldehyde] |  |  | 19.5 mm | 500 µg/mL (≈ 3010 µM) | 2670 µg/mL (≈ 16000 µM) | 
6 | c1ccc2[nH]ccc2c1 [indole] |  | 6.3 mm |  | 259 µg/mL (≈ 2210 µM) | 693 µg/mL (≈ 5920 µM) | zone of inhibition at 1 % (M. globosa ATCC MYA-4612): 15.2 mm
7 | COC(=O)c1c(C)cc(O)c(C)c1O [methyl 2,4-dihydroxy-3,6-dimethylbenzoate] | 6.3 mm | 7.4 mm | 12 mm | 290 µg/mL (≈ 1480 µM) | 111 µg/mL (≈ 566 µM) | zone of inhibition at 2 % (M. furfur DSM 6170): 7 mm; zone of inhibition at 2 % (M. globosa ATCC MYA-4612): 9.2 mm
8 | CCCCCCC#CC(=O)OC [methyl octine carbonate, methyl 2-nonynoate] | 6.4 mm |  |  |  |  | zone of inhibition at 1 % [1]: 6.7 mm; zone of inhibition at 1 % (M. globosa ATCC MYA-4612): 10.3 mm
9 | CCCCCCCCC(=O)O [nonanoic acid] |  |  |  |  |  | Ratio of inhibition zone diameter (0.5% PRM + 0.1% PO) to 0.1% PO (M. restricta): 1.1; Ratio of inhibition zone diameter (1% PRM + 0.35% PO) to 0.35% PO (M. restricta): 1.2
10 | CCCCCCCC(=O)O [octanoic acid] |  |  |  |  |  | Ratio of inhibition zone diameter (1% PRM + 0.35% PO) to 0.35% PO (M. restricta): 1.1
11 | CC(C)C1CCC(CO)CC1 (centres unmarked) [p-menthan-7-ol] | 6.7 mm | 6.5 mm |  | 222 µg/mL (≈ 1420 µM) | 625 µg/mL (≈ 4000 µM) | zone of inhibition at 2 % (M. furfur DSM 6170): 6.3 mm
12 | COc1ccc(C=O)cc1 [para-anisaldehyde, 4-methoxybenzaldehyde] |  |  | 13.4 mm | 500 µg/mL (≈ 3670 µM) |  | 
13 | cyclopropylmethyl (3Z)-3-hexenoate + cyclopropylmethyl (3E)-3-hexenoate |  |  |  |  |  | MIC (ppm) M. furfur [2]: 333 ppm; Inhibition zone (mm) M. restricta ([1]; 0.2% in DMSO): 6.3 mm; Inhibition zone (mm) M. restricta ([1]; 2% in DMSO): 11.0 mm; MIC (ppm) S. aureus [3]: 625 ppm; Inhibition zone (mm) M. furfur (M. furfur DSM 6170; 2% in DMSO, 20 μL on 6 mm disc, 3 days, NI means no inhibition zone): 8.0 mm; Inhibition zone (mm) M. globosa (M. globosa ATCC MYA-4612; 0.2% in DMSO): 8.7 mm; Inhibition zone (mm) M. globosa (M. globosa ATCC MYA-4612; 2% in DMSO): 13.0 mm
